The record followed here is patent publication US9315486B2, “Therapeutic cyclopentanols, compositions thereof, and methods for use thereof” (Allergan, Inc., priority 2013, dated 2016).

Where only a bound is given, the exact number is not on record here.

Test [1] concerns the target T1, EP2 (Homo sapiens, UniProt P43116). Description: EP2 cAMP activity study. Type of test: cell-based. As for the experimental part: (§1) Data from running binding and activity studies on the compounds of the invention were carried out as described in U.S. Pat. No. 7,427,685, the contents of which are incorporated herein by reference.
Test [2] has as its target T1, EP2. Kind of test: EP2 Ca2+ signal activity study. The test is classed as cell-based. As for the experimental part: as §1
Test [3] concerns the target T1, EP2. Description: EP2 binding study. As for the experimental part:
as §1

The target of test [4] is T2, EP4 (Homo sapiens, UniProt P35408). Description: EP4 Ca2+ signal activity study. The test is classed as cell-based. Here is the method:
as §1

In test [5] the target is T2, EP4. Description: EP4 binding study. As for the experimental part:
as §1

The target of test [6] is T3, EP1 (Homo sapiens, UniProt P34995).
T3 sequence (P34995 1-402): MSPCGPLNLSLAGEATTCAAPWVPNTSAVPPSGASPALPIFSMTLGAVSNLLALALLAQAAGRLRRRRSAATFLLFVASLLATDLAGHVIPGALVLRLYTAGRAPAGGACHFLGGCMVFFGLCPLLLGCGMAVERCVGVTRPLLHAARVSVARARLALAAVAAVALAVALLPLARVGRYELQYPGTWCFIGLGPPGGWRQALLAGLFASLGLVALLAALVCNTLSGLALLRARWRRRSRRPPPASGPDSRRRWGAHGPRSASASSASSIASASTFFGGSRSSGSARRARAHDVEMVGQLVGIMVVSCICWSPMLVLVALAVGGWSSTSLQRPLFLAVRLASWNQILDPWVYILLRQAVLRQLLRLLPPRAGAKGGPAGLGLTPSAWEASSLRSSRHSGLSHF
Kind of test: EP1 activity study. The test is classed as cell-based. As for the experimental part: as §1

For test [7], the target named is T4, EP3 (Homo sapiens, UniProt P43115).
T4 sequence (P43115 1-390): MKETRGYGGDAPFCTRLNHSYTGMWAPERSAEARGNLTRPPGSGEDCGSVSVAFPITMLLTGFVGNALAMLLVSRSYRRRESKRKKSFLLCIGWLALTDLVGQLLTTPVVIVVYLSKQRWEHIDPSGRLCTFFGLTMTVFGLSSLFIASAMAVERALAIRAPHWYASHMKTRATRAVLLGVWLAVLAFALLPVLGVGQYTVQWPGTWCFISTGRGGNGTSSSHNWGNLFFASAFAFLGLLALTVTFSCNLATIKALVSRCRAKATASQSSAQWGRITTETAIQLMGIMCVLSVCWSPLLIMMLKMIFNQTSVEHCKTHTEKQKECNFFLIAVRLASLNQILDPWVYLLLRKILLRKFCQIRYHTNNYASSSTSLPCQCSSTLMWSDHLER
Kind of test: EP3 activity study. Type of test: cell-based. Here is the method: as §1

In test [8] the target is T5, DP (Homo sapiens, UniProt Q13258).
T5 sequence (Q13258 1-359): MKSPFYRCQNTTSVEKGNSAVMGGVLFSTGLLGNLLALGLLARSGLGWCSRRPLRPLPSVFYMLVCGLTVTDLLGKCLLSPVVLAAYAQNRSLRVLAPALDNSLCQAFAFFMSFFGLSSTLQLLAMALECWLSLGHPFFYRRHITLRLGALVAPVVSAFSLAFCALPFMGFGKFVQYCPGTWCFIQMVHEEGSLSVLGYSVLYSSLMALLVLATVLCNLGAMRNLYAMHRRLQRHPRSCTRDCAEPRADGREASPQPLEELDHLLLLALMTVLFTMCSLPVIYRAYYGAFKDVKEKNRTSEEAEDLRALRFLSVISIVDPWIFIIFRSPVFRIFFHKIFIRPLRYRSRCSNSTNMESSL
Description: DP activity study. Type of test: cell-based. As for the experimental part: as §1

Test [9] deals with T6, TP (Homo sapiens, UniProt P21731).
T6 sequence (P21731 1-343): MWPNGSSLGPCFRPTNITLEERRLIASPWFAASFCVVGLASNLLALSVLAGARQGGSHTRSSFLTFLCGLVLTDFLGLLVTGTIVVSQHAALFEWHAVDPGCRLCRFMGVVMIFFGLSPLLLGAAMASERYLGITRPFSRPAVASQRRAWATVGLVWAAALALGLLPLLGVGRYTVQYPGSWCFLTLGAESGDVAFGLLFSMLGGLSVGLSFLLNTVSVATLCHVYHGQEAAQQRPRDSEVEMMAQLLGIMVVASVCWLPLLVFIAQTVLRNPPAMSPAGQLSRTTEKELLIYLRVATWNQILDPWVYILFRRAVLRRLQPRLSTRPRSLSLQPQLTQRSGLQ
Kind of test: TP activity study. The test is classed as cell-based. As for the experimental part:
as §1

T2 sequence (P35408 whole entry): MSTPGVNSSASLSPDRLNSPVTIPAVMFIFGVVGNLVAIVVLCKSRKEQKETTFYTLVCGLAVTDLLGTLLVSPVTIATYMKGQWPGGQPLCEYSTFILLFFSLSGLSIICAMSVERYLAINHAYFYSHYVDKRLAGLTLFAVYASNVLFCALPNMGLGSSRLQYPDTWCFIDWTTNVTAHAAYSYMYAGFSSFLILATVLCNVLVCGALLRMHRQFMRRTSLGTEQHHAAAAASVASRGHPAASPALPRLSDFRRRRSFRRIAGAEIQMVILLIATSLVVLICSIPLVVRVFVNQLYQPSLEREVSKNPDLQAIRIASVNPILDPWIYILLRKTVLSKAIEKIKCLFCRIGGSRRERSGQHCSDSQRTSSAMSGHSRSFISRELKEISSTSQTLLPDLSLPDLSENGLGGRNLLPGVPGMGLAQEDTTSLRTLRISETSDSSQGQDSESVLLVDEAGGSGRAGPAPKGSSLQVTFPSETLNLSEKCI
T1 sequence (P43116 whole entry): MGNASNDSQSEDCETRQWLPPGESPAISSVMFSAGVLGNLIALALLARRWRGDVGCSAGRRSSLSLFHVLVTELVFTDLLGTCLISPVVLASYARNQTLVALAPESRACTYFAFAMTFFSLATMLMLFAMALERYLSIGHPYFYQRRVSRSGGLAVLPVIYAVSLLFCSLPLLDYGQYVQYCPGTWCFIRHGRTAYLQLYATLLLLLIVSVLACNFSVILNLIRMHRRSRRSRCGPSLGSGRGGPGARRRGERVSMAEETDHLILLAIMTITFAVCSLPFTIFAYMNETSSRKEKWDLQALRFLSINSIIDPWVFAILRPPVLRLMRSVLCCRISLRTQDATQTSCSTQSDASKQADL

As for `C[C@@H](O)CCCC[C@@H](O)/C=C/[C@@H]1[C@@H](CCCc2ccc(C(=O)O)s2)[C@H](Cl)C[C@H]1O` [5-(3-((1R,2R,3R,5R)-5-chloro-2-((3R,8R,E)-3,8-dihydroxynon-1-en-1-yl)-3-hydroxycyclopentyl)propyl)thiophene-2-carboxylic acid], the EC50 (as a rule, the concentration needed to bring the measured effect to its halfway point) in test [1] was 14 nM; in test [2] it was 328 nM; in test [3] it was 365 nM; in test [4], more than 10000 nM; in [5], 3410 nM; in [6] it was 4220 nM. It took 7140 nM to reach a half-maximal effect in test [7] (EC50).
For the compound `C[C@@H](O)CCC[C@H](O)/C=C/[C@@H]1[C@@H](CCCc2ccc(C(=O)O)s2)[C@H](Cl)C[C@H]1O`, in test [8], the concentration for a half-maximal effect (EC50) worked out at 6790 nM. In other words, the single-digit micromolar range.
With `C[C@@H](O)CCCC[C@H](O)/C=C/[C@@H]1[C@@H](CCCc2ccc(C(=O)O)s2)[C@H](Cl)C[C@H]1O` [5-(3-((1R,2R,3R,5R)-5-Chloro-2-((3S 8R,E)-3,8-dihydroxynon-1-en-1-yl)-3-hydroxycyclopentyl)propyl)thiophene-2-carboxylic acid], the concentration giving a half-maximal response (EC50) is 1.4 nM in test [1]; 29 nM in test [2]; 363 nM in [3]; 455 nM in [4]; more than 10000 nM in [5]; 207 nM in [6]. Moreover, the EC50 in [7] is 222 nM; in [8] it was 4520 nM.
In the case of `O=C(O)c1ccc(CCC[C@@H]2[C@@H](/C=C/[C@@H](O)CCCCCO)[C@H](O)C[C@H]2Cl)s1`, the EC50 in test [1] turned out to be 0.4 nM; in [2], 4 nM; in [3], 147 nM; in test [4], 68 nM; in test [5], 1130 nM; in test [6], 101 nM. Further, the EC50 in [7] worked out at 129 nM; in test [8], 3350 nM; in test [9], 7570 nM.
For the compound `CCCC(O)CC(O)/C=C/[C@@H]1[C@@H](CCCc2ccc(C(=O)O)s2)[C@H](Cl)C[C@H]1O` (stereo partly shown), the EC50 in [1] turned out to be 3 nM; in test [2], 27 nM; in test [3] it was 716 nM; in [4] it was 23 nM; in test [5] it was 434 nM; in [6], 1240 nM. Further, the EC50 in test [7] was determined as 690 nM; in test [8], 2260 nM; in [9] it was 4800 nM.
On to `CCCCC(O)[C@H](O)/C=C/[C@@H]1[C@@H](CCCc2ccc(C(=O)O)s2)[C@H](Cl)C[C@H]1O` (stereo partly shown), for which the EC50 stood at 2.3 nM in test [1]; 9 nM in test [2]; 148 nM in test [3]; 45 nM in test [4]; 490 nM in [5]; 886 nM in test [8].
